This test addresses T1, K-Ras G12D (Homo sapiens, UniProt P01116, G12D).
T1 construct: AGS (Cobioer, CBP60476) cell lines which harbor KRAS G12D mutation; host or cells: AGS
The experiment in a line: p-ERK Cellular 1-Plate Assay (Biological Example 3). The test is classed as cell-based. Particulars: AGS cells (KRAS G12D), 3 h treatment, AlphaLISA p-ERK1/2, 1-plate; Biological Example 3 (values marked *); read-out: AGS PERK EC50. The protocol:
The ability of the compound of Formula (IIA′), (II′), or (II) or a pharmaceutically acceptable salt thereof (test compound) to inhibit K-Ras G12D activity was tested using AGS (Cobioer, CBP60476) cell lines which harbor KRAS G12D mutation as described below.
AGS (Cobioer, CBP60476) were seeded in 384-well plates and cultured overnight (5,000 cells per well, 40 μl total volume). The following morning, cells were treated with test compound, with starting concentration at 10 μM and 3-fold dilution down to 0.5 nM for 3 h at […]. DMSO treatment served as control. pERK was then measured using AlphaLISA SureFire Ultra p-ERK/2 (Thr202/Tyr204) Assay Kit (Perkin Elmer, cat #ALSU-PERK) following the manufacturer's instruction as follows.
Briefly, the culture medium was removed and 10 μl 1× lysis buffer was added to each well, followed by 10 minutes incubation on a plate shaker at room temperature. Acceptor mixture was prepared according to manufacturer's instruction. 5 μl acceptor mixture was added to the cell lysate and the plate was wrapped with foil, spun at 500 rpm for 10s and incubated at RT for 60 min. Donor mixture was prepared under subdued light. 5 μl donor mixture was added to the cell lysate and the plate was spun at 500 rpm for 10s and incubated at RT for another 60 min. in the dark.
Background: In Alpha technology, singlet oxygen from a donor bead excites a nearby acceptor bead.

Here are results for two molecules from patent US20240166669A1, “QUINAZOLINE AMINE DERIVATIVES AS KRAS INHIBITORS” (Nikang Therapeutics, Inc., priority 2021, published 2024).

Molecules are shown by their SMILES.

T1 sequence (P01116 1-188 isoform P01116-2 G12D): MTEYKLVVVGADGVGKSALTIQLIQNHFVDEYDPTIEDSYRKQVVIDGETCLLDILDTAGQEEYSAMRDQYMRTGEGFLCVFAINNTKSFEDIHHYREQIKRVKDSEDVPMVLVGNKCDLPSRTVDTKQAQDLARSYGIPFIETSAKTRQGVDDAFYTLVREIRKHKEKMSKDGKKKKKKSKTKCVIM

What is called EC50 is the midpoint of the concentration-response curve. For `C#Cc1c(F)ccc2cccc(-c3ncc4c(N5C[C@H]6CC[C@@H](C5)N6)nc(OCC56CCCN5CC(=C)CC6)nc4c3F)c12` (stereo partly drawn) [Example 50, 4-((1R,5S)-3,8-diazabicyclo[3.2.1]octan-3-yl)-7-(8-ethynyl-7-fluoronaphthalen-1-yl)-8-fluoro-2-((6-methylenehexahydroindolizin-8a(1H)-yl)methoxy)-pyrido[4,3-d]pyrimidine], the EC50 is 213 nM. `C#Cc1c(F)ccc2cccc(-c3ncc4c(N5C[C@H]6CC[C@@H](C5)N6)nc(OCC56CC(=C)CN5CC(=C)C6)nc4c3F)c12` [Example 47, 4-((1R,5S)-3,8-diazabicyclo[3.2.1]octan-3-yl)-2-((2,6-dimethylenetetrahydro-1H-pyrrolizin-7a(5H)-yl)methoxy)-7-(8-ethynyl-7-fluoronaphthalen-1-yl)-8-fluoropyrido[4,3-d]pyrimidine]: the EC50 turned out to be 52 nM.
